# US20050228016A1, “TETRAHYDROQUINOLINES FOR MODULATING THE EXPRESSION OF EXOGENOUS GENES VIA AN ECDYSONE RECEPTOR COMPLEX” (priority 2002, published 2005)
# Test system: GAL4 DBD-CfEcR(DEF)/VP16AD-MmRXRE
# Assay: not given
# Details: CHO 13B3 clone, 48 h, average of two wells
# Source text: GAL4 DBD-CfEcR(DEF)/VP16AD-MmRXRE: The wild-type D, E, and F domains from spruce budworm Choristoneura fumiferana EcR (“CfEcR-DEF”; SEQ ID NO: 1) were fused to a GAL4 DNA binding domain (“Gal4DBD1-147”; nucleotides 31 to 471 of SEQ ID NO: 2) and placed under the control of the SV40e promoter of pM vector (PT3119-5, Clontech, Palo Alto, Calif.). The D and E domains from Mus Musculus RXR (“MmRXR-DE”; SEQ ID NO: 22) were fused to the transactivation domain from VP16 (“VP16AD”; SEQ ID NO: 5) and placed under the control of the SV40e promoter of the pVP16 vector (PT3127-5, Clontech, Palo Alto, Calif.).
# CHO cells were transiently transfected with transcription cassettes for GAL4 DBD-CfEcR(DEF) and for VP16AD-MmRXRE controlled by SV40e promoters. Stably transfected cells were selected using Hygromycin. Individually isolated CHO cell clones were transiently transfected with a GAL4 RE-luciferase reporter (pFR-Luc, Stratagene, La Jolla, Calif.). The 13B3 clone was selected using Zeocin.
# Cells were trypsinized and diluted to a concentration of 2.5×10^4 cells mL. 100 μL of cell suspension was placed in each well of a 96 well plate and incubated at 37° C. under 5% CO2 for 24 h. Ligand stock solutions were prepared in DMSO and diluted 300 fold for all treatments.
# Luciferase reporter gene expression was measured 48 h after cell treatment using Bright-Glo™ Luciferase Assay System from Promega (E2650). Luminescence was detected at room temperature using a Dynex MLX microtiter plate luminometer.
# Each assay was conducted in two separate wells, and the two values were averaged. Fold inductions were calculated by dividing relative light units (“RLU”) in ligand treated cells with RLU in DMSO treated cells.
row,SMILES,"Fold Induction Average, 13B3V1 Assay 33 μM"
1,CCCCCc1ccc(C(=O)N2c3ccccc3C(Nc3ccccc3)CC2C)cc1 (stereo not drawn) [Compound I-138],1 fold
2,COc1cccc(N(C(C)=O)C2CC(C)N(C(=O)c3ccccc3)c3ccccc32)c1 (stereo not drawn) [Compound I-140],2 fold
3,Cc1ccc(NC2CC(C)N(C(=O)c3ccc(Cl)cc3)c3ccc(C)cc32)cc1 (stereo not drawn) [Compound I-144],4 fold
4,CC1CC(Nc2ccccc2)c2ccccc2N1C(=O)c1cccc(Br)c1 (stereo not drawn) [Compound I-148],1 fold
5,Cc1ccc(NC2CC(C)N(C(=O)c3cccc([N+](=O)[O-])c3)c3ccc(C)cc32)cc1 (stereo not drawn) [Compound I-154],4 fold
6,CC1CC(N(C(=O)C2CC2)c2ccccc2)c2ccccc2N1C(=O)C1CC1 (stereo not drawn) [Compound I-155],1 fold
7,CC1CC(Nc2ccccc2)c2ccccc2N1C(=O)c1cccc([N+](=O)[O-])c1 (stereo not drawn) [Compound I-158],118 fold
8,CC1CC(Nc2ccccc2)c2ccccc2N1C(=O)C=Cc1ccccc1 (stereo not drawn) [Compound I-163],26 fold
9,CC1CC(N(C(=O)c2cccc(Br)c2)c2ccccc2)c2ccccc2N1C(=O)c1cccc(O)c1 (stereo not drawn) [Compound I-166],2 fold
10,CCCc1ccc(C(=O)N2c3ccccc3C(Nc3ccccc3)CC2C)cc1 (stereo not drawn) [Compound I-173],1 fold

# Target: T1, Bombyx mori EcR (VP16-BmEcR, CVBE) (Bombyx mori, UniProt P49881)
# T1 construct: expressed in transfected cells
# T1 sequence (P49881 86-606): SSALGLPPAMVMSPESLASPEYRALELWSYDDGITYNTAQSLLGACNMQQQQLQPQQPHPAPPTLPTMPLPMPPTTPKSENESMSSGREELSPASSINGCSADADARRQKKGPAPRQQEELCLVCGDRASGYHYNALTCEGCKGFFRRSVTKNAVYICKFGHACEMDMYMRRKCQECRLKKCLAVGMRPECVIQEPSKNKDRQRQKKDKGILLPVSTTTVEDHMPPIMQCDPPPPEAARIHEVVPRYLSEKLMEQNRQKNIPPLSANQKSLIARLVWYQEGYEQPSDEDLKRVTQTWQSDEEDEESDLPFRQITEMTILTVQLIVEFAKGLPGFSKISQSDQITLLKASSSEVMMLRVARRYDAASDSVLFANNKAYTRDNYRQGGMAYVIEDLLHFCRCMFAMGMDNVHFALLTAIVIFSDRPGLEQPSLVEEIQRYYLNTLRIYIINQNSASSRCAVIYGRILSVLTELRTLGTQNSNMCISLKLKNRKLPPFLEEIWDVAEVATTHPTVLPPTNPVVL
# Assay: Z3 assay (HEK-293 clone Z3 with CVBE and 6x EcRE LacZ, β-galactosidase reporter)
# Type: cell-based
# Details: 48 h, average of two wells
row,SMILES,"Fold Induction Average, Z3V1 Assay 33 μM"
1,CCCCCc1ccc(C(=O)N2c3ccccc3C(Nc3ccccc3)CC2C)cc1 (stereo not drawn) [Compound I-138],1 fold
2,COc1cccc(N(C(C)=O)C2CC(C)N(C(=O)c3ccccc3)c3ccccc32)c1 (stereo not drawn) [Compound I-140],1 fold
3,Cc1ccc(NC2CC(C)N(C(=O)c3ccc(Cl)cc3)c3ccc(C)cc32)cc1 (stereo not drawn) [Compound I-144],1 fold
4,CC1CC(Nc2ccccc2)c2ccccc2N1C(=O)c1cccc(Br)c1 (stereo not drawn) [Compound I-148],19 fold
5,Cc1ccc(NC2CC(C)N(C(=O)c3cccc([N+](=O)[O-])c3)c3ccc(C)cc32)cc1 (stereo not drawn) [Compound I-154],1 fold
6,CC1CC(N(C(=O)C2CC2)c2ccccc2)c2ccccc2N1C(=O)C1CC1 (stereo not drawn) [Compound I-155],1 fold
7,CC1CC(Nc2ccccc2)c2ccccc2N1C(=O)c1cccc([N+](=O)[O-])c1 (stereo not drawn) [Compound I-158],18 fold
8,CC1CC(Nc2ccccc2)c2ccccc2N1C(=O)C=Cc1ccccc1 (stereo not drawn) [Compound I-163],27 fold
9,CC1CC(N(C(=O)c2cccc(Br)c2)c2ccccc2)c2ccccc2N1C(=O)c1cccc(O)c1 (stereo not drawn) [Compound I-166],1 fold
10,CCCc1ccc(C(=O)N2c3ccccc3C(Nc3ccccc3)CC2C)cc1 (stereo not drawn) [Compound I-173],3 fold

# Target: T2, Gal4DBD/AaEcR (DEF) (Aedes aegypti, UniProt P49880)
# T2 construct: The wildtype D, E, and F domains from mosquito Aedes aegypti EcR; expressed in transfected cells; host or cells: 3T3 cells
# Assay: cell-based
# Type: cell-based
# Details: 33 μM; 3T3 cells; 48 h; average of two wells
# Outline: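 Mouse 3T3 cells transiently co-transfected with Gal4DBD/AaEcR (DEF) and pFRLuc (5× GAL4 response element, firefly luciferase reporter). Ligand added in serum medium 4 h after transfection; single-dose testing at 33 μM.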
# T2 sequence (P28704 286-520 A311G/G315S/G445S/I449V): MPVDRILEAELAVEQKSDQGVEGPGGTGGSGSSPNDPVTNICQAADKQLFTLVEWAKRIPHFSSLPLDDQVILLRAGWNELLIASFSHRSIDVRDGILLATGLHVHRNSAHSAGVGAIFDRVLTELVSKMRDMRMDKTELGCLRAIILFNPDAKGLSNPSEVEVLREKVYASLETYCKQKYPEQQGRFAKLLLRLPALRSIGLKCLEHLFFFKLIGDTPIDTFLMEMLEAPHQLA
# T2 sequence (P49880 405-776): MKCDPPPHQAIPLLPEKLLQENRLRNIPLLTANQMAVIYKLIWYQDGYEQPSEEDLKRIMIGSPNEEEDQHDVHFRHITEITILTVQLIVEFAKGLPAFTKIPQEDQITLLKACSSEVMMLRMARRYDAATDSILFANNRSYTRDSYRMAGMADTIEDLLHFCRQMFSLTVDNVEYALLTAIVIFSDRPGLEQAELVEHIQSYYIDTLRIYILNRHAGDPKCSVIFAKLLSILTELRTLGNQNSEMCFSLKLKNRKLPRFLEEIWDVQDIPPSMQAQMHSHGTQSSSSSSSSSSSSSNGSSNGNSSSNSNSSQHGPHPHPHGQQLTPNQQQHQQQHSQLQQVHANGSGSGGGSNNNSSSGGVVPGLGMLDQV
row,SMILES,"Fold Induction Average, AA_3T3V1 Assay 33 μM"
1,CCCCCc1ccc(C(=O)N2c3ccccc3C(Nc3ccccc3)CC2C)cc1 (stereo not drawn) [Compound I-138],5 fold
2,COc1cccc(N(C(C)=O)C2CC(C)N(C(=O)c3ccccc3)c3ccccc32)c1 (stereo not drawn) [Compound I-140],1 fold
3,Cc1ccc(NC2CC(C)N(C(=O)c3ccc(Cl)cc3)c3ccc(C)cc32)cc1 (stereo not drawn) [Compound I-144],73 fold
4,CC1CC(Nc2ccccc2)c2ccccc2N1C(=O)c1cccc(Br)c1 (stereo not drawn) [Compound I-148],47 fold
5,Cc1ccc(NC2CC(C)N(C(=O)c3cccc([N+](=O)[O-])c3)c3ccc(C)cc32)cc1 (stereo not drawn) [Compound I-154],1 fold
6,CC1CC(N(C(=O)C2CC2)c2ccccc2)c2ccccc2N1C(=O)C1CC1 (stereo not drawn) [Compound I-155],1 fold
7,CC1CC(Nc2ccccc2)c2ccccc2N1C(=O)c1cccc([N+](=O)[O-])c1 (stereo not drawn) [Compound I-158],207 fold
8,CC1CC(Nc2ccccc2)c2ccccc2N1C(=O)C=Cc1ccccc1 (stereo not drawn) [Compound I-163],4 fold
9,CC1CC(N(C(=O)c2cccc(Br)c2)c2ccccc2)c2ccccc2N1C(=O)c1cccc(O)c1 (stereo not drawn) [Compound I-166],58 fold
10,CCCc1ccc(C(=O)N2c3ccccc3C(Nc3ccccc3)CC2C)cc1 (stereo not drawn) [Compound I-173],172 fold
